Columns and labels:
[1] = test system: caspase 3 and caspase 3-like activities; assay type: cell-based, human
[2] = test system: blood mononuclear cells from leukemia patients; assay type: cell-based, human
[3] = test system: P388 lymphocytic leukemia cells; settings: mouse, in vivo, ip, 100 mg/kg; cited from earlier work
HL-60 cells = assay type: cell-based, human
[4] = SGLU1 multiple dose toxicology in vivo; design: species or system mice; key to Death: “—” indicates no compound-related finding
Protocol: Further studies were performed to determine the dose-limiting toxicity associated with the administration of repeated doses in groups of mice. Tables 11–16 below describe the results of the multiple-dose toxicology studies for MER-1 and Tables 17–21 describe results of the multiple-dose toxicology of SGLU-1.
The results of the SGLU-1 Multiple Dose I.V. are summarized as follows: Five mice/sex were administered 5 daily intravenous injections of SGLU via the tail vein at doses of 50, 100, 150, 200, 250, 300, and 350 mg/kg/day. All surviving mice were held for 28 days, sacrificed, and designated tissues collected, formalin fixed, and examined.

For `C[As](C)SC[C@H](NC(=O)CC[C@H](N)C(=O)O)C(=O)NCC(=O)O` [SGLU1, S-(dimethylarsino) glutathione], the “toxicity to normal cells, long-term clonogenic assay” value (normal donor cells) was “less toxic then arsenic trioxide to normal cells”, the “activation of caspases (PhiPhiLux staining)” value [1] was “activation of caspases” and the “activity against blood cells from patients with leukemia” value [2] was “significant activity against blood tumor cells from patients with leukemia”. The “% T/C” value [3] was 164%, the “effect on cell cycle” value (HL-60 cells) was “marked accumulation of cells in S-phase of cell cycle” and the “Clinical Signs” value ([4]; 50 mg/kg/day IV daily x5) was “None”. The Death ([4]; 50 mg/kg/day IV daily x5) was “—”, the “Kidney: Murine progressive glomerulonephropathy, incidence” value ([4]; 50 mg/kg/day, F) was 1/5 and the “Liver: Pyogranuloma, focal, incidence” value ([4]; 50 mg/kg/day, F) was 1/5. The “Lung: Hemorrhage, focal, incidence” value ([4]; 50 mg/kg/day, F) was 1/5, the “Number of animals/dose that tolerated 5 doses” value ([4]; 50 mg/kg/day, F) was 5/5 and the “Body Weights Avg.” value ([4]; 50 mg/kg/day, Female) was 25 grams. The “Liver: Pyogranuloma, focal, incidence” value ([4]; 50 mg/kg/day, M) was 1/5, the “Lung: Atelectasis, incidence” value ([4]; 50 mg/kg/day, M) was 1/5 and the “Lung: Pleural adhesion, focal, incidence” value ([4]; 50 mg/kg/day, M) was 1/5. The “Number of animals/dose that tolerated 5 doses” value ([4]; 50 mg/kg/day, M) was 5/5, the “Body Weights Avg.” value ([4]; 50 mg/kg/day, Male) was 25 grams and the “Clinical Signs” value ([4]; 100 mg/kg/day IV daily x5) was “None”. The Death ([4]; 100 mg/kg/day IV daily x5) was “—”, the “Kidney: Inflammation, focal, incidence” value ([4]; 100 mg/kg/day, F) was 2/5 and the “Liver: Pyogranuloma, focal, incidence” value ([4]; 100 mg/kg/day, F) was 5/5. For the same compound, the “Number of animals/dose that tolerated 5 doses” value ([4]; 100 mg/kg/day, F) was 5/5, the “Body Weights Avg.” value ([4]; 100 mg/kg/day, Female) was 24 grams and the “Liver: Pyogranuloma, focal, incidence” value ([4]; 100 mg/kg/day, M) was 1/5. The “Number of animals/dose that tolerated 5 doses” value ([4]; 100 mg/kg/day, M) was 5/5, the “Body Weights Avg.” value ([4]; 100 mg/kg/day, Male) was 23 grams and the “Clinical Signs” value ([4]; 150 mg/kg/day IV daily x5) was “None”. The Death ([4]; 150 mg/kg/day IV daily x5) was “—”, the “Liver: Inflammation, portal, incidence” value ([4]; 150 mg/kg/day, F) was 2/5 and the “Liver: Pyogranuloma, focal, incidence” value ([4]; 150 mg/kg/day, F) was 3/5. For the same compound, the “Number of animals/dose that tolerated 5 doses” value ([4]; 150 mg/kg/day, F) was 5/5, the “Body Weights Avg.” value ([4]; 150 mg/kg/day, Female) was 25 grams and the “Kidney: Inflammation, focal, incidence” value ([4]; 150 mg/kg/day, M) was 1/5. The “Liver: Pyogranuloma, focal, incidence” value ([4]; 150 mg/kg/day, M) was 1/5, the “Lung: Inflammation, focal, incidence” value ([4]; 150 mg/kg/day, M) was 1/5 and the “Number of animals/dose that tolerated 5 doses” value ([4]; 150 mg/kg/day, M) was 5/5. For the same compound, the “Tail: Acute necrosis with vasculitis, thrombosis, and hemorrhage, incidence” value (shortened to “Tail: Acute necrosis with vasculitis”) ([4]; 150 mg/kg/day, M) was 1/5, the “Tail: Ulcerative dermatitis, incidence” value ([4]; 150 mg/kg/day, M) was 1/5 and the “Testes: Seminiferous tubular degeneration, incidence” value (“Testes … incidence” below) ([4]; 150 mg/kg/day, M) was 1/5. The “Body Weights Avg.” value ([4]; 150 mg/kg/day, Male) was 23 grams, the “Clinical Signs” value ([4]; 200 mg/kg/day IV daily x5) was 2 F tail necrosis: amputate and the Death ([4]; 200 mg/kg/day IV daily x5) was “—”. For the same compound, the “Kidney: Inflammation, focal, incidence” value ([4]; 200 mg/kg/day, F) was 2/5, the “Liver: Hepatocyte hypertrophy: Centrilobular (compatible with SER), incidence” value (from here on “Liver: Hepatocyte hypertrophy”) ([4]; 200 mg/kg/day, F) was 1/5 and the “Liver: Increased mitoses, incidence” value ([4]; 200 mg/kg/day, F) was 1/5. The “Liver: Inflammation, portal, incidence” value ([4]; 200 mg/kg/day, F) was 3/5, the “Liver: Pyogranuloma, focal, incidence” value ([4]; 200 mg/kg/day, F) was 3/5 and the “Number of animals/dose that tolerated 5 doses” value ([4]; 200 mg/kg/day, F) was 5/5. For the same compound, the “Tail: Acute necrosis with vasculitis” value ([4]; 200 mg/kg/day, F) was 4/5, the “Tail: Ulcerative dermatitis, incidence” value ([4]; 200 mg/kg/day, F) was 2/5 and the “Body Weights Avg.” value ([4]; 200 mg/kg/day, Female) was 24 grams. For the same compound, the “Epididymus: Oligospermia, incidence” value ([4]; 200 mg/kg/day, M) was 1/5, the “Heart: Interstitial fat, increased, incidence” value ([4]; 200 mg/kg/day, M) was 1/5 and the “Liver: Ito cell hypertrophy, incidence” value ([4]; 200 mg/kg/day, M) was 1/5. The “Liver: Pyogranuloma, focal, incidence” value ([4]; 200 mg/kg/day, M) was 2/5, the “Number of animals/dose that tolerated 5 doses” value ([4]; 200 mg/kg/day, M) was 5/5 and the “Testes … incidence” value ([4]; 200 mg/kg/day, M) was 1/5. The “Body Weights Avg.” value ([4]; 200 mg/kg/day, Male) was 24 grams, the “Clinical Signs” value ([4]; 250 mg/kg/day IV daily x5) was 2 M tail necr.: amputate and the “Liver: Focus of Alteration, eosinophilic, incidence” value ([4]; 250 mg/kg/day, F) was 1/5. For the same compound, the “Liver: Hepatocyte hypertrophy” value ([4]; 250 mg/kg/day, F) was 1/5, the “Liver: Inflammation, portal, incidence” value ([4]; 250 mg/kg/day, F) was 2/5 and the “Liver: Pyogranuloma, focal, incidence” value ([4]; 250 mg/kg/day, F) was 1/5. For the same compound, the “Lung: Inflammation, focal, incidence” value ([4]; 250 mg/kg/day, F) was 1/5, the “Number of animals/dose that tolerated 4 doses” value ([4]; 250 mg/kg/day, F) was 1/5 and the “Number of animals/dose that tolerated 5 doses” value ([4]; 250 mg/kg/day, F) was 4/5. For the same compound, the “Body Weights Avg.” value ([4]; 250 mg/kg/day, Female) was 24 grams, the “Epididymus: Oligospermia, incidence” value ([4]; 250 mg/kg/day, M) was 1/5 and the “Liver: Hepatocyte hypertrophy” value ([4]; 250 mg/kg/day, M) was 5/5. For the same compound, the “Liver: Pyogranuloma, focal, incidence” value ([4]; 250 mg/kg/day, M) was 3/5, the “Number of animals/dose that tolerated 5 doses” value ([4]; 250 mg/kg/day, M) was 5/5 and the “Tail: Acute necrosis with vasculitis” value ([4]; 250 mg/kg/day, M) was 2/5. For the same compound, the “Tail: Ulcerative dermatitis, incidence” value ([4]; 250 mg/kg/day, M) was 1/5, the “Testes … incidence” value ([4]; 250 mg/kg/day, M) was 2/5 and the “Body Weights Avg.” value ([4]; 250 mg/kg/day, Male) was 24 grams.

From patent US6995188B2 (priority 2002, dated 2006)
